Earlier results on one compound are cited in patent publication US11167065B2 (EUROCOR TECH GMBH, priority 2009, dated 2021).

Like-named read-outs stand apart in the source and are kept apart here.

On to `CC(=O)O[C@H]1C(=O)[C@@]2(C)[C@H]([C@H](OC(=O)c3ccccc3)[C@]3(O)C[C@H](OC(=O)[C@H](O)[C@@H](NC(=O)c4ccccc4)c4ccccc4)C(C)=C1C3(C)C)[C@]1(OC(C)=O)CO[C@@H]1C[C@@H]2O` (relative stereo) [Paclitaxel, [2aR-[2a,4,4a,6,9(R*,S*),11,12,12a,12b]]-(benzoylamino)-hydroxybenzene propionic acid 6,12b-bis-(acetyloxy)-12-(benzoyloxy)-2a-3,4,4a, 5,6,9, 10, 11, 12, 12a, 12b-dodecahydro-4,11-dihydroxy-4a,8,13,13-tetramethyl-5-oxo-7,11-methano-1H-cyclodeca[3,4]benz[1,2-b]oxet-9-yl ester)], for which the Solubility entry is, setting by setting: (in dimethyl sulfoxide (DMSO), methanol, anhydrous ethanol) “highly soluble”; (in water) “comparatively poorly soluble”.
